Test results: ChEMBL document CHEMBL1201862, “PubChem BioAssay data set” (2004)
Calls of active or inactive are those of the source.

How the values were obtained:
[1] = molecular target: Luciferin 4-monooxygenase (Photinus pyralis, UniProt P08659); test: firefly luciferase enzyme inhibitors, dose response, biochemical, luminescence (AID 1891)
[2] = Luminescence Cell-Based Dose Confirmation HTS to Identify Inhibitors of Platelet Dense Granule Release. [Related pubchem assays: 1663 (Primary HTS), 1678 (Summary of Project)]; format: functional
[3] = microbe, parasite or virus in culture; format: functional; settings: Mycobacterium tuberculosis
[4] = molecular target: T1, Fatty acid synthase (Homo sapiens, UniProt P49327); test: FAS thioesterase domain inhibitors, dose response, biochemical, endpoint fluorescence intensity, uHTS hits (AID 624327); format: functional;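 note: fluorescence from hydrolysis of an O-methyl fluorescein acyl ester substrate by the enzyme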
[5] = molecular target: T1, Fatty acid synthase; test: FAS thioesterase domain inhibitors, dose response, biochemical, kinetic fluorescence intensity (AID 624326); format: functional;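 note: rate of fluorescence rise from hydrolysis of a fluorogenic O-methyl fluorescein ester substrate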
[6] = molecular target: T2, Calpain-2 catalytic subunit (Sus scrofa, UniProt P43367); test: pig calpain II inhibitor potency, dose response, biochemical, fluorogenic peptide substrate (AID 1420); format: functional
T2 sequence (P43367 whole entry): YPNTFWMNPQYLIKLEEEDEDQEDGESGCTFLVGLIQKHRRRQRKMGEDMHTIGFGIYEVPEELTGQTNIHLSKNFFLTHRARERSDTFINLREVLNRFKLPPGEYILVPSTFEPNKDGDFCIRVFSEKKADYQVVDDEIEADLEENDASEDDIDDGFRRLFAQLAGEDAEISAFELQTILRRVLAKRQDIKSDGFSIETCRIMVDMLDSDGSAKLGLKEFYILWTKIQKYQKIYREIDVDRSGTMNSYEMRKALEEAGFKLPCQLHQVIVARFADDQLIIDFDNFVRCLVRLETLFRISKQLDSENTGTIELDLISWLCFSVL

[7] = inhibitors of intracellular T. cruzi replication, confirmation, NIH3T3 host cells, beta-gal luminescence (AID 2044); format: functional, cell-based;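 note: intracellular parasites grown in NIH/3T3 mouse fibroblasts as host cells; luminescent beta-galactosidase reporter signal from transgenic T. cruzi replicating inside host cells; inhibitors lower the luminescence signal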
[8] = cytotoxicity toward NIH3T3 fibroblasts, dose response, counter-screen, cell-based, ATP luminescence, mouse fibroblasts (AID 2010); format: functional;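 note: cells exposed to compound for about 90 hours before reading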
[9] = test system: Streptococcus sp. 'group A'; test: growth inhibition of control SK(-) GAS strain, dose response, counter-screen for streptokinase expression inhibitor project, luminescence, kanamycin, BacTiterGlo, confirmation (AID 1900); format: functional, organism-based
[10] = molecular target: T3, Streptokinase A (Streptococcus pyogenes serotype M1, UniProt P10520); test: S. pyogenes streptokinase expression inhibitors, potency, dose response, plasminogen activation absorbance, OD405 (AID 1914); format: functional, Streptococcus pyogenes M1 GAS;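 note: secreted streptokinase activity via plasminogen activation per viability signal from cell pellet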
T3 sequence (P10520 whole entry): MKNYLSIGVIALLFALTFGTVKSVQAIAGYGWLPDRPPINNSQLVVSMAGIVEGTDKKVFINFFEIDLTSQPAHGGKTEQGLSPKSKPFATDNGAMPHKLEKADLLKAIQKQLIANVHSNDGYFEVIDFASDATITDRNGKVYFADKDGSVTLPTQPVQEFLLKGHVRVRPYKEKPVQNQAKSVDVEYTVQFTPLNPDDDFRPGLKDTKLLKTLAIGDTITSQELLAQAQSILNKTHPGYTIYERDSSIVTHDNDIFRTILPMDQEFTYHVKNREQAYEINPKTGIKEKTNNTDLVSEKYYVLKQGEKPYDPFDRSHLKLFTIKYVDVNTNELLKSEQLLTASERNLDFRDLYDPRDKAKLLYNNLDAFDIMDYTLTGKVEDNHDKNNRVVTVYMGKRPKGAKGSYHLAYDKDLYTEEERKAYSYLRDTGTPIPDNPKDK

[11] = test system: Streptococcus; test: Group A Streptococcus viability loss, dose response, counter-screen for streptokinase expression inhibitor project, luminescence, BacTiterGlo (AID 1915); format: functional, organism-based;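 note: potency for reduction of bacterial viability or growth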
[12] = NIH-3T3 fibroblast cytotoxicity, dose response, cytotoxicity control, cell-based, fluorescence, Alamar Blue, secondary assay (AID 2327); format: functional;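 note: NIH-3T3 mouse fibroblasts cultured with fluconazole at 8 µg/mL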
[13] = C. albicans growth with fluconazole, confirmation, fluorescence, retest (AID 2467); format: functional, cell-based
[14] = Luminescence Cell-Based Dose Confirmation HTS to Identify Activators of 5'UTR Stem-Loop Driven Alpha-Synuclein mRNA Translation in H4 Neuroglioblastoma Cells. [Related pubchem assays: 1829 (Project Summary), 1814 (Primary HTS)]; format: functional
[15] = Luminescence Cell-Based Dose Response HTS to Identify Activators of Luciferase Translation or Activity in H4 […] Cells. [Related pubchem assays: 1829 (Project Summary), 1814 (Primary HTS)]; format: functional
[16] = test system: H4; test: Luminescence Cell-Based Dose Response HTS to Identify Activators of 5'UTR Stem-Loop Driven Prion Protein mRNA Translation in H4 Neuroglioblastoma Cells. [Related pubchem assays: 1829 (Project Summary), 1814 (Primary HTS)]; format: functional; settings: Homo sapiens
[17] = molecular target: T4, Replicative DNA helicase DnaB (Mycobacterium tuberculosis, UniProt P9WMR3); test: DnaB intein splicing inhibitors, dose response, biochemical, cell-free fluorescence (AID 449749); format: functional
T4 sequence (P9WMR3 whole entry): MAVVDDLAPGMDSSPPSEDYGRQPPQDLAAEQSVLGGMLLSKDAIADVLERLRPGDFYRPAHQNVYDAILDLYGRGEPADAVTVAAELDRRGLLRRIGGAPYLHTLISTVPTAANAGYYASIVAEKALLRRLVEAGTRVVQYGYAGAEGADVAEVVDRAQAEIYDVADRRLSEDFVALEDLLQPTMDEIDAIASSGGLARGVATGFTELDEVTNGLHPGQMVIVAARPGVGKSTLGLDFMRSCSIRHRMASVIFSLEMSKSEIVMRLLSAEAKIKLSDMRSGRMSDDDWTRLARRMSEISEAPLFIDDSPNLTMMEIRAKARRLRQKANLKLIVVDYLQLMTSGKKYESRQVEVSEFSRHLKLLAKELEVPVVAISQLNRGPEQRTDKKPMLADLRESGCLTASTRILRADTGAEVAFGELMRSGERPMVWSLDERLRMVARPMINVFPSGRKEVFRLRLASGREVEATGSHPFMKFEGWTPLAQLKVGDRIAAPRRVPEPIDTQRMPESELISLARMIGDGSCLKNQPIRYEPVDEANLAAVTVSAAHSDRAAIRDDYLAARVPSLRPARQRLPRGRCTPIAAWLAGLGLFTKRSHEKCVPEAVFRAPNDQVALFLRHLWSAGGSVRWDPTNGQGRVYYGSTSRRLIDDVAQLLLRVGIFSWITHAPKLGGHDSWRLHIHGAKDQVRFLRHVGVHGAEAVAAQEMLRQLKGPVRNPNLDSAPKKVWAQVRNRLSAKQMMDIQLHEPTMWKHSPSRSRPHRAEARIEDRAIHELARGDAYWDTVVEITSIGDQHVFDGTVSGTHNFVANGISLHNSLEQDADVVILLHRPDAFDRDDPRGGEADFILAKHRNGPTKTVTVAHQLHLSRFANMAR

[18] = molecular target: T5, Protein RecA (Mycobacterium tuberculosis, UniProt P9WHJ3); test: Fluorescence Cell-Free Homogeneous Dose Retest to Identify Inhibitors of RecA-Intein Splicing Activity. [Related pubchem assays (depositor defined):AID2097, AID2223, AID489010, AID492950]; format: functional
T5 sequence (P9WHJ3 whole entry): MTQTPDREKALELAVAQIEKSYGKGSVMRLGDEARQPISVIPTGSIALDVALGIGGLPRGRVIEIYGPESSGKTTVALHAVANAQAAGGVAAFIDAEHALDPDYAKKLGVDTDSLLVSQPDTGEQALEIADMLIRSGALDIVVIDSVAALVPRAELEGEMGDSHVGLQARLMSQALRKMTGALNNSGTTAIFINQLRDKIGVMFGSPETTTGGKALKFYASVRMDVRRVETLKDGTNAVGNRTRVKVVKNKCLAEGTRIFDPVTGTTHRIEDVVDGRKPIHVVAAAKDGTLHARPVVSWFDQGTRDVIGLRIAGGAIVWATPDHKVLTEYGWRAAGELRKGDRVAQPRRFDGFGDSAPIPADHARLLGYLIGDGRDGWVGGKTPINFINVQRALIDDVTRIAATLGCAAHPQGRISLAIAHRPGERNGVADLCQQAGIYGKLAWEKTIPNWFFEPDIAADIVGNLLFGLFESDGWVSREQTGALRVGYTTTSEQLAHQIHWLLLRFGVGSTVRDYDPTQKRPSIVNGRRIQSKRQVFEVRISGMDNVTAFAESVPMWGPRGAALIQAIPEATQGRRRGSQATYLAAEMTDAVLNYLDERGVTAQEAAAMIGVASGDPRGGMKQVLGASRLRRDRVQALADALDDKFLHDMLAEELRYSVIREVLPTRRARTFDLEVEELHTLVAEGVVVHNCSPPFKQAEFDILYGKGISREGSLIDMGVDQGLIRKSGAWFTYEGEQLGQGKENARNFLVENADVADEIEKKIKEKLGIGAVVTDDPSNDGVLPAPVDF

[19] = growth suppression of beta-catenin-knockout colon cells, dose response, cell-based, HCT116, human colon tumor (AID 1045); format: functional;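 note: HCT116 colon tumor cells with beta catenin knocked out; cells exposed to compound for 60 hours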
[20] = Luminescence Cell-Based Dose Retest to Confirm Inhibitors of Cancer Stem Cells. [Related pubchem assays (depositor defined):AID2717, AID2721]; format: functional; settings: Homo sapiens
[21] = test system: H9c2; test: cells; format: functional, cell-based; settings: Rattus norvegicus, H9c2, Myocardium;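 note: confirmatory concentration-response retest of ultra-high-throughput screening hits for modulation of myocardial damage; cell death induced by hydrogen peroxide oxidative stress; compound pretreatment for 60 min then peroxide exposure for 2 h; potency is for protecting the cells against peroxide damage rather than for killing them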
[22] = inhibitors of HIV Env-driven cell fusion, dose response, cherry-pick (AID 652057); format: functional, cell-based
[23] = ZM109 Env clade C HIV-1 fusion inhibitors, dose response, HeLa effector, CEM target cells, luciferase, cherry-pick (AID 652058); format: functional, cell-based
[24] = inhibitors of clade B AD8 Env fusion, dose response, cell-based, cherry-pick (AID 652062); format: functional;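 note: luciferase signal from cell-cell fusion driven by HIV-1 clade B AD8 Env; potency is for inhibitors of fusion seen as a drop in luminescence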

Chain of Luciferin 4-monooxygenase (P08659 whole entry): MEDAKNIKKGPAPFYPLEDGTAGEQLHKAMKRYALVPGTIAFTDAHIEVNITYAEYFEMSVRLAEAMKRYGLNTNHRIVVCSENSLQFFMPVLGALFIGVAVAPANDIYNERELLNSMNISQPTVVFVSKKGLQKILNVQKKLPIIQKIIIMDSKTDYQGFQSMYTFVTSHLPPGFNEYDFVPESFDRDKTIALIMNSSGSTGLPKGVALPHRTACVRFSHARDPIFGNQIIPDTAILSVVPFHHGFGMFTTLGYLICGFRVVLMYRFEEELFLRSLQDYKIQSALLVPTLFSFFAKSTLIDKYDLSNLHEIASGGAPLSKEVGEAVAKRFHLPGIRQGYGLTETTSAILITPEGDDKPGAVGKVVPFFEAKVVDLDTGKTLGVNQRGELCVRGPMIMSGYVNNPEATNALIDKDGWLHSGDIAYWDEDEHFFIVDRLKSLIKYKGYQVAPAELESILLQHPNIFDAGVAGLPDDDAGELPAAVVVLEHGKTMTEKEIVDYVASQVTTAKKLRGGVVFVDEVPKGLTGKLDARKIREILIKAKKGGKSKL
T1 sequence (P49327 whole entry, the tested form may be a part): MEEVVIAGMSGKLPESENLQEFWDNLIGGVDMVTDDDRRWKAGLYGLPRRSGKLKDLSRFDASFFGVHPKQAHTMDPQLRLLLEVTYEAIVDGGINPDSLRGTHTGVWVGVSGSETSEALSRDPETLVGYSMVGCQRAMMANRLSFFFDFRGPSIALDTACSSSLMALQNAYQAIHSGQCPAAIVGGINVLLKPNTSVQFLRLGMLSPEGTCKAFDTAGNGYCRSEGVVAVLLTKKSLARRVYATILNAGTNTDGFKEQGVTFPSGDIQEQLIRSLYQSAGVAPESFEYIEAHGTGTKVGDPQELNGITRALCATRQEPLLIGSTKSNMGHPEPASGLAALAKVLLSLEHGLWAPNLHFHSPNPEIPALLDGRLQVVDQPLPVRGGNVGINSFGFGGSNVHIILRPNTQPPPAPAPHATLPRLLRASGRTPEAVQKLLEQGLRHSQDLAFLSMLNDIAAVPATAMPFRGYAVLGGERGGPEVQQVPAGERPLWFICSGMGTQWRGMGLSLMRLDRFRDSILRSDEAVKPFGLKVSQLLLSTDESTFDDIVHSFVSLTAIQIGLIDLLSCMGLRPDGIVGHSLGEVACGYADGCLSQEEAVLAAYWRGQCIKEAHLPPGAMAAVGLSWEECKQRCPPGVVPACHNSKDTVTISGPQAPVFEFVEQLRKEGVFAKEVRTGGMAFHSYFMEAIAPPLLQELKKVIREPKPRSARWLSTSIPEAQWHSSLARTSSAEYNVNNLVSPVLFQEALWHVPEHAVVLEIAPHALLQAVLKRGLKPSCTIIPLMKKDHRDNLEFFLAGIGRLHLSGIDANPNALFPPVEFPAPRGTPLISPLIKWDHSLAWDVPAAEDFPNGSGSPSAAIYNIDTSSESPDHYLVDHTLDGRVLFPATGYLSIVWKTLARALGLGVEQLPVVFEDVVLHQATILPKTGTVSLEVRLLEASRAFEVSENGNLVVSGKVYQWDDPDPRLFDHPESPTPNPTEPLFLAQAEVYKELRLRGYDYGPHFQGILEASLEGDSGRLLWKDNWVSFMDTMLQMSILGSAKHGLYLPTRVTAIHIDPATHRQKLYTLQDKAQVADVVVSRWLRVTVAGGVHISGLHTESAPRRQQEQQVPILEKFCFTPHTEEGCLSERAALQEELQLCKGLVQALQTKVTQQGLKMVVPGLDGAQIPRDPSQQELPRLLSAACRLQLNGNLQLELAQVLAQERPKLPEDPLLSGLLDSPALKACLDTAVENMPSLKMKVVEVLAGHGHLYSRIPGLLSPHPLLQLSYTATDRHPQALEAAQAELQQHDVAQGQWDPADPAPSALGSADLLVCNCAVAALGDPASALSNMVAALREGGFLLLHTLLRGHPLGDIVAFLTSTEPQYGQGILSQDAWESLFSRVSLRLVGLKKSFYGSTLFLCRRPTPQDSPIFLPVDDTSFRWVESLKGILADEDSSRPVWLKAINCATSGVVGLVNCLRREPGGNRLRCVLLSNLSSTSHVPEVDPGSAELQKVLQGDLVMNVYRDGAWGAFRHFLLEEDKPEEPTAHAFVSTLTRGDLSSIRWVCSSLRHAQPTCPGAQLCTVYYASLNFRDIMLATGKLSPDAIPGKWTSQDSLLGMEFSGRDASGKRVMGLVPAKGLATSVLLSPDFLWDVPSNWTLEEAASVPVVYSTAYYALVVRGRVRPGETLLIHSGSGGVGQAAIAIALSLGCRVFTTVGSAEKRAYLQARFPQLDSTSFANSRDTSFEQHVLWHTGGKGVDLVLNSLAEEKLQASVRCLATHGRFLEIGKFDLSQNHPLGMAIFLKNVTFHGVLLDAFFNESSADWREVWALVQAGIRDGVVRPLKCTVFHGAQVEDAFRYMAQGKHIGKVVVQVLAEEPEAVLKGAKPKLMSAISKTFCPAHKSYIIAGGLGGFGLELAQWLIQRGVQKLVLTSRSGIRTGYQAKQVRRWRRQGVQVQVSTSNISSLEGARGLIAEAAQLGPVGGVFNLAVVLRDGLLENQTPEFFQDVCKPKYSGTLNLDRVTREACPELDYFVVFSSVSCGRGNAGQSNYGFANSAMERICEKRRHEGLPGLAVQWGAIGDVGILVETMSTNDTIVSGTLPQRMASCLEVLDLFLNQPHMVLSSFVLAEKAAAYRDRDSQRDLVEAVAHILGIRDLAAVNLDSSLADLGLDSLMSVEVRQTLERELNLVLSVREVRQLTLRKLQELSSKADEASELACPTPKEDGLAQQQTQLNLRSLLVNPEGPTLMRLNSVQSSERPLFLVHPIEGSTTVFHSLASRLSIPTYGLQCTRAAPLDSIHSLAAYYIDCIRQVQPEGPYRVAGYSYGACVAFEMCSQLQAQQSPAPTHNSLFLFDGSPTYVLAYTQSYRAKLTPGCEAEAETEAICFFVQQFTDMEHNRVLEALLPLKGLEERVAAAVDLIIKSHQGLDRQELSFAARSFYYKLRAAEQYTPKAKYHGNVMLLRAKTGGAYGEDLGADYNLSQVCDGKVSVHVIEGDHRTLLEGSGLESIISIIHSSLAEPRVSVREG

## O=C(NC1CCCCC1)C12CC3CC(CC(Cl)(C3)C1)C2
[1]
  EC50: > 112 µM (not active)
[2]
  EC50: > 112 µM (not active)

## CCCCn1c(-c2ccc(C(C)(C)C)cc2)nc2cc3nc(O)c(C(C)C)nc3cc21
[3]
  CC50: 32.7 µM (active)

## Cc1nc2ccc([N+](=O)[O-])cc2c(=O)n1Cc1ccc(F)cc1
[4]
  IC50: 3.27 µM (active)
[5]
  IC50: 4.49 µM (active)

## O=C(O)CCN(CC(=O)c1ccc(Cl)cc1)S(=O)(=O)c1ccc([N+](=O)[O-])cc1
[4]
  IC50: 5.21 µM (active)
[5]
  IC50: 4.83 µM (active)

## Cc1ccc(SCC(=O)OC(C)C(=O)NCc2ccccc2)cc1 (stereo not given)
[1]
  EC50: > 112 µM (not active)
[2]
  EC50: > 112 µM (not active)

## O=C(NCc1ccccc1Cl)C1CCCN(c2nc3ccsc3c(=O)s2)C1 (stereo not given)
[6]
  IC50: 15.9 µM (not active)

## Cc1ccc(-c2nc3c(c(=O)[nH]c(=O)n3CC(C)C)n2CC(C)C)cc1[N+](=O)[O-]
[7]
  EC50: 1.41 µM (active)
[6]
  IC50: 16.1 µM (not active)
[8]
  EC50: > 30 µM (not active)

## COc1ccc(CC(=O)N(C)Cc2ccc(C(C)(C)C)cc2)cc1S(=O)(=O)N1CCOCC1
[4]
  IC50: 2.25 µM (active)
[5]
  IC50: 2.02 µM (active)

## O=C(CSc1nc(Nc2ccccc2)nc(N2CCOCC2)n1)Nc1cc(Cl)ccc1O
[9]
  EC50: 6.55 µM (active)
[10]
  EC50: 30.7 µM (active)
[3]
  CC50: 17 µM (active)
[11]
  EC50: 18.5 µM (active)

## O=C(COc1ncnc2cc([N+](=O)[O-])ccc12)N(CCc1ccccc1)Cc1ccccc1
[4]
  IC50: 5.94 µM (active)
[5]
  IC50: 22.2 µM (inactive)

## CCN(CC(O)Cn1c2ccccc2c2ccccc21)S(=O)(=O)c1ccc(F)cc1 (stereo not given)
[6]
  IC50: 6.55 µM (not active)

## CC(C)(C)OC(=O)Nc1ncnc2c1ncn2C1OC(CO)C2OC(C)(C)OC21 (stereo not given)
[1]
  EC50: > 112 µM (not active)
[2]
  EC50: > 112 µM (not active)

## CC(=O)c1cnc2cc(-c3cccc(Br)c3)nn2c1C
[12]
  EC50: > 150 µM (inconclusive)
[13]
  EC50: > 38 µM (not active)

## O=C(COC(=O)c1cc([N+](=O)[O-])ccc1Cl)NC1CCCC1
[4]
  IC50: 0.979 µM (active)
[5]
  IC50: 1.12 µM (active)

## COc1ccc(C(=O)/C=C/Sc2nc3ccccc3o2)cc1
[14]
  EC50: 17.4 µM (active)
[15]
  EC50: 96.7 µM (active)
[16]
  EC50: 14.5 µM (active)
[3]
  CC50: 32.4 µM (active)
[17]
  AC50: > 380 µM (inactive)
[18]
  EC50: 54.4 µM (active)

## COc1cc2c(cc1OC)C1(Nc3c-2c(C)nn3-c2ccccc2)C(=O)Nc2ccccc21 (stereo not given)
[19]
  EC50: 73.2 µM (active)

## O=C1C=C(c2ccc(Cl)c(C(F)(F)F)c2)C[C@@H](c2ccc3c(c2)OCO3)C1
[20]
  AC50: 5.04 µM (active)
[4]
  IC50: 5.66 µM (active)
[5]
  IC50: 5.82 µM (active)

## NC1=NC2(CCC(c3ccccc3)CC2)n2c(nc3ccccc32)N1 (stereo not given)
[3]
  CC50: 29.3 µM (active)

## CCN(C(=O)CSc1nnc(C)n1-c1ccccc1)C1CCS(=O)(=O)C1 (stereo not given)
[1]
  EC50: > 112 µM (not active)
[2]
  EC50: > 112 µM (not active)

## CCOC(=O)CNS(=O)(=O)c1cc(-c2nnc(O)c3ccccc23)ccc1C
[1]
  EC50: > 112 µM (not active)
[2]
  EC50: 7.49 µM (active)
[21]
  IC50: > 79 µM (inactive)

## O=C(COc1ccc([N+](=O)[O-])cc1)NNC(=S)NC(=O)c1ccc(Br)cc1
[12]
  EC50: > 150 µM (inactive)
[13]
  EC50: 3.09 µM (active)

## COc1ccc2[nH]c3c(c2c1)CCN1C(=O)C(CC(=O)NCCc2ccccn2)C[C@H](C(=O)N2CCOCC2)[C@@]31CCC1CCCC1 (stereo not given in full)
[4]
  IC50: 7.16 µM (active)
[5]
  IC50: 8.91 µM (active)

## C[C@H](CO)N1C[C@H](C)[C@H](CN(C)S(=O)(=O)c2cccc(F)c2)Oc2cc(Br)ccc2S1(=O)=O
[22]
  AC50: 5.29 µM (active)
[23]
  AC50: 3.27 µM (active)
[24]
  AC50: 33.5 µM (active)

## CCCCNC(=S)N/N=C/c1ccccc1F
[6]
  IC50: 5.17 µM (active)

## C[C@H](CO)N1C[C@H](C)[C@H](CN(C)Cc2ccccc2)Oc2cc(-c3ccccc3)ccc2S1(=O)=O
[22]
  AC50: 18.9 µM (active)
[23]
  AC50: 21 µM (active)
[24]
  AC50: 26.7 µM (active)
